Tests used:
[1] = system: subjects with CHD having decreased RBC K content; format: in vivo, human
Experimental: Subjects were evaluated by clinical angina (CCS angina Class II-IV), dyspnea, or arrhythmia.
Exclusion Criteria: Evidence of acute coronary syndrome, AMI, stroke or cardiac arrhythmias; NYHA class III-IV of heart failure, hyperkalemia. Informed consent was obtained in all. Other non CHD causes of chest pain, dyspnea, and arrhythmia had been ruled out.
In addition to that, a single dose of calcium gluconolactate (1 g/daily) was given to all subjects having plasma ionized ICa^2+ ≦1.1 mmol/L, while other Laboratory correction and drug assessment were conducted across the first 3-month period (Table 1) Safety control (ECG, Ion Transport Laboratory, BIA, Non-Invasive Hemodynamic) was obtained at 1, 3 and 6 months and 1 year. Clinical control was obtained weekly in the first month or as needed for physician or patient symptoms; thereafter a 3, 6 and 12 months.
The subjects were taken off any drug that might impair RBC transport, such as digitalis, β-blockers, or NSAID's, in subjects with RBC K^+ ≦90.2 mmol/L cell. Oral calcium gluconolactate (1 g/daily) was administered in all subjects with plasma ionized calcium ≦1.1 mmol/L. Subjects had correction of other plasma electrolyte abnormalities. The subjects were taken off any drug that may affect ventricular repolarization, as digoxin, calcium channel blockers (CCB), diuretics, β-blockers, or the like. […] Anti-aggregants or aspirin in subjects free of angina were discontinued after the 3rd month of treatment.
All subjects underwent: a) Serial ECG for LVH by Cornell or Sokolow-Lyon Criteria (QRS duration times Cornell voltage: R aVL+SV3, with 6 mm [added in women >2440 mm×ms], or Sokolow-Lyon voltage: [SV1+RV5/V6] >38 mm; along with LV strain pattern (classical ST-segment depressed, with inverted T-waves), or LVH voltage criteria with mild LV strain pattern (isoelectric, biphasic or non-symmetrical negative T-waves, without ST-segment depression), and ECG criteria for infarction and/or ischemia (Q-waves from previous AMI, decreased R-wave height, non-progressive R-wave voltages in precordial leads, ST-segment elevation […] often referred as injury current, ST-segment depression ≧[…] often downsloping from the J point, rectification of the ST segment, and isoelectric, biphasic, negative or inverted T-wave), intraventricular conduction disturbance, and arrhythmias); b) Non-invasive hemodynamic study (DP200M) for cardiac parameters (LV Ejection Time (LVET), LV dP/dT (LV delta pressure-time), Cardiac output and index (CO, Cl), Stroke Volume (SV), Pulse Wave Analysis (PWA) of Central Aortic Blood Pressure (BP), Aortic Systolic (SBP), Diastolic (DBP) and mean (m) BP, Aortic augmentation index; inflection point and reflected wave analysis, Systemic Vascular Resistance and Compliance (SVR/SVC), and Brachial Artery Distensibility (BAD), Brachial Artery Compliance (BAC); c) Ion Transport Studies for RBC (K^+, Na^+) plasma (K^+, Na^+, Cl^−, ICa^2+, Mg^2+), and 12-hours night urinary volume (K^+, Na^+, Cl^−, pH), d) Bio-Impedance Analysis (BIA, Quantum X, RJL Systems, MI, USA) for Total body Potassium, Total body water/Extracellular Water, Fat Mass (FM) and Fat-Free Mass (FFM) and e) Echocardiography was obtained at entry, 6 and 12 months periods.

[2] = system: subjects with stable chronic angina
Experimental: A double blind placebo-controlled, randomized trial was conducted in 25 subjects with stable chronic angina. […] All of the subjects were evaluated before and after the double-blind trial, thereby measuring a subject's angina clinical score (CCS Angina Class), ECG, and exercise tolerance as assessed by the Duke Treadmill Score (DTS). Methods for using the DTS with patients in need of coronary intervention and its acceptance as an accurate predictor of cardiac morbidity and mortality in CHD and CAD patients has been well established. See for example Azeem T., et al., Int J. Clin. Pract. (2001), 55(1):10-13. […] Participants' clinical and cardiac parameters were evaluated either monthly, quarterly, half yearly and yearly.

[3] = 1-month trial, Amiloride 5 mg/d, N=14
[4] = 1-month, Amiloride 5 mg/d, N=14

For `Cl.NC(N)=NC(=O)c1nc(Cl)c(N)nc1N.O.O` [Amiloride, 3,5-diamino-6-chloro-N-(diaminomethylene) pyrazinecarboxamide monohydrochloride, dihydrate], the “RBC K” value ([1]; 1st month, baseline 84.5±4, p<0.001) was 93.5±4 mmol/L cell, the “cardiovascular events or death” value ([1]; 2 years of follow-up) was 0% and the “RBC K+” value ([1]; 3rd month) was “remained improved”. The “subjects with improved ST-segment depression or elevation and isoelectric, biphasic or inverted T-wave” value ([1]; 3rd month, CHD subjects, no nitrates, lower anti-aggregants or aspirin) was 74%, the “LV Strain pattern” value ([1]; 3rd month, hypertensives) was “improved or almost reversed” and the LVH voltage criteria ([1]; 3rd month, hypertensives, p<0.001) was “significantly decreased”. For the same compound, the “normotensive subjects with marked improved ST-segment depression or elevation and inverted T-waves” value ([1]; 6th month, 3 out 4) was 75%, the “hypertensives subjects with improved LV Strain pattern” value ([1]; 6th month, about 4 out of 5) was roughly 80% and the “ECG-LVH voltage, Sokolow-Lyon criteria” value ([1]; 6th month, baseline 29.3±5.2, p=0.001) was 25.1±3.2 mm. For the same compound, the “ECG-LVH voltage, Cornell” value ([1]; 6th month, baseline 2577±509, p<0.02) was 2353±254 mm×ms, the “subjects with previous inferior infarction whose ECGs remained unchanged for Q-waves” value ([1]; 6th month, these subjects were free of angina) was 15% and the QTc interval ([1]; human, in vivo) was “prolonged”. For the same compound, the hyperkalemia ([1]; human, in vivo) was “never observed”, the “SVC (Systemic Vascular Compliance)” value ([1]; hypertensives, 1st month, baseline 0.92±0.16, p<0.003) was 1.22±0.21 ml/mmHg and the “LV dP/dT” value ([1]; hypertensives, 1st month, baseline 1757±313, p<0.001) was 1302±276 mmHg/s. For the same compound, the “BA Compliance” value ([1]; hypertensives, 1st month, baseline printed 0.57±0.021, p<0.005) was 0.069±0.02 ml/mmHg, the “angina, single subject FIG. 7B” value ([1]; normotensive diabetic, after 5 months of Amiloride and calcium treatment) was “angina reversed” and the “ECG change, single subject FIG. 3C” value ([1]; normotensive person, bypass surgery, infarction, instable angina, 6-months Amiloride and calcium) was “reversion of T-wave alterations”. The “angina, single subject FIG. 7A” value ([1]; person, angina, diabetes, hypertension, after 4 months of Amiloride treatment) was “the angina reversed”, the “clinical change, single subject FIG. 5B” value ([1]; person, hypertension, LVH, 3-months Amiloride, antihypertensive and vasodilators drugs) was “reversion of clinical symptoms of exertional angina, and palpitations” and the “clinical change, single subject FIG. 4B” value ([1]; person, hypertension, infarction, heart failure, 2 months after addition of Amiloride and calcium gluconolactate) was “clinical improvement of angina (3 weeks), heart failure and hypertension”. The “angina, single subject FIG. 6B” value ([1]; person, hypertension, post-infarction angina, Amiloride treatment) was “rapid reversion of angina (7 days)”, the “ECG T-waves, single subject FIG. 4B” value ([1]; person, 2 months after addition of Amiloride and calcium gluconolactate) was “T-waves were improved” and the “ECG T-wave, single subject FIG. 6B” value ([1]; person, after 5-months of Amiloride treatment) was “reversion of T-wave inversion”. The “free of angina and symptoms of heart failure” value ([1]; within 1st month, Amiloride 5 mg/daily (calcium gluconolactate 1 g/daily if plasma ICa2+ ≦1.1 mmol/L), 75 CHD subjects) was “all subjects were free of angina and symptoms of heart failure”, the Double-Product [2, 3] was 25700 ± 4633 and the “Peak Exercise BP, diastolic” value [2, 3] was 94 ± 10. For the same compound, the “Peak Exercise BP, systolic” value [2, 3] was 177 ± 19, the “Peak Exercise HR” value [2, 3] was 144 ± 19 and the “Exercise Time” value ([2]; 1-month trial, Amiloride 5 mg/d, N=14, P<0.05 vs placebo) was 7.95 ± 2.8 min. The “High Risk Value: Subjects (%)” value [2, 4] was 35.7%, the “Low Risk Value: Subjects (%)” value [2, 4] was 64.3% and the “subjects with improved ST-T alterations of ischemia” value ([2]; 4 weeks, Amiloride 5 mg daily, 9 out of 14) was 64%. The “subjects free of angina” value ([2]; 4 weeks, Amiloride 5 mg daily, Twelve out of 14 subjects) was 71%, the “adverse episodes of cardiac arrhythmia” value ([2]; 4 weeks, Amiloride 5 mg daily, exercise treadmill test) was “without any adverse episodes of cardiac arrhythmia” and the “1-Month DTS (Duke Treadmill Score)” value ([2]; Amiloride 5 mg/d, N=14, Baseline DTS −2.28 ± 7.0) was 7.90 ± 4.2. The “High Risk Value (DTS), changes from baseline to 1-month” value ([2]; Amiloride 5 mg/d, high risk subjects) was “*−3 ± −2.6” and the “Low Risk Value (DTS), changes from baseline to 1-month” value ([2]; Amiloride 5 mg/d, low risk subjects) was “*8.6 ± 2.3”.

Source: patent publication US20090062309A1, “Therapeutic compositions for the treatment of cardiovascular diseases and methods for use therefor” (priority 2007, published 2009)
